Laboratory results as given in patent publication US20240067693A1, “POLYPEPTIDES AND USES THEREOF” (MEDIMMUNE LIMITED, priority 2020, published 2024).
Numbered stars: 1 amine (or outer) side, 2 acyl side, 3 side chain; on linkers, the order of the positions; unused ones are H or OH. Bridge positions count the residues as written; N and C are the ends. Square brackets hold non-standard residues; d marks the D form. Side chains are listed from the residue outwards. Peptide text beside a SMILES is read from it. * marks the point of attachment. C18 diacid = O=C(O)CCCCCCCCCCCCCCCCC(=O)*; γGlu = O=C(O)[C@H](CCC(=O)[*:2])N[*:1]; αMeF = C[C@](N)(Cc1ccccc1)C(=O)O; Aib = CC(C)(N)C(=O)O

Assays:
[1] = molecular target: T1, human calcitonin receptor (hCTR) (Homo sapiens, UniProt P30988); assay: cAMP production in 1321N1 cells with stable recombinant expression of human calcitonin receptor (hCTR); assay type: cell-based; conditions: cAMP, 1321N1 cells, assay buffer with 0.1% BSA; read-out: EC50 (pM) hCTR
T1 construct: expressed in transfected cells
T1 sequence (P30988 25-474): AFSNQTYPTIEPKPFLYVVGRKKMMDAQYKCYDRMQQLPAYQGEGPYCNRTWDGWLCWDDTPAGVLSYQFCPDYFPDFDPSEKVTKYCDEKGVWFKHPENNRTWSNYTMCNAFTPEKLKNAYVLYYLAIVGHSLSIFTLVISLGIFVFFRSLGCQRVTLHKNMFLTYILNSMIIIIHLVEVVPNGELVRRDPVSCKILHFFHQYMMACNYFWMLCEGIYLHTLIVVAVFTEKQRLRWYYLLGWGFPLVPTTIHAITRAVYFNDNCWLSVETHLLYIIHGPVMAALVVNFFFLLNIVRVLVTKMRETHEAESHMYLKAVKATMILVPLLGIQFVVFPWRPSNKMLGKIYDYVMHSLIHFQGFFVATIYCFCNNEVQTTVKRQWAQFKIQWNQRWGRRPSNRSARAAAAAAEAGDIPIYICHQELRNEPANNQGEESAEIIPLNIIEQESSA
Summary of the method: (§1)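 Receptor-expressing cells (human receptors in 1321N1, rat receptors in HEK) incubated 30 min at room temperature with peptide in HBSS/HEPES pH 7.4, 0.1% BSA, 0.5 mM IBMX. cAMP read by HTRF; EC50 from 4-parameter fit as % of maximal amylin or calcitonin response.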

in vivo = conditions: male, Sprague-Dawley, rat, 20 nmol/kg
[2] = molecular target: T2, human amylin receptor (calcitonin receptor co-expressed with receptor activity modifying protein, RAMP3) (hAMYR3) (Homo sapiens, UniProt O60896+P30988); assay: cAMP production in 1321N1 cells with stable recombinant expression of human amylin receptor (hAMYR3); assay type: cell-based; conditions: for Ratio (selectivity hAMYR vs hCTR, ratio of EC50 values at the two receptors): EC50 hCTR / EC50 hAMYR3; for EC50: cAMP, 1321N1 cells, assay buffer with 0.1% BSA, read-out: EC50 (pM) hAMYR3
T2 construct: expressed in transfected cells
T2 sequence (P30988 25-474): T1 sequence (P30988 25-474)
T2 sequence (O60896 24-148 partner): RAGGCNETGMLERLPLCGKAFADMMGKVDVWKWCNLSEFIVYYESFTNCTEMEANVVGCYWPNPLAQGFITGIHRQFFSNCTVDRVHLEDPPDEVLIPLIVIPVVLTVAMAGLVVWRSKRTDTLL
Summary of the method: as §1

[3] = Thioflavin T fibrillation assay; assay type: physicochemical; conditions: ThT fibrillation assay; peptide 1 mg/mL in 25 mM sodium acetate buffer pH 4.0; 6 days at 37 °C with shaking; >144 h = no increase
Summary of the method: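 Peptides at 1 mg/mL in 25 mM sodium acetate pH 4.0 with ThT (from 0.25 mM stock), incubated 6 days at 37 °C with intermittent orbital shaking at 500–750 rpm. Fluorescence (ex 444/em 480 nm) read every 30 min; value is average time to a rise in baseline-corrected signal.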

EC50 [1] [pM] | half-life (in vivo; iv) [h] | half-life (in vivo; sc) [h] | Ratio (selectivity hAMYR vs hCTR, ratio of EC50 values at the two receptors) [2] | EC50 [2] [pM] | Time taken to detect increase in fluorescence intensity [3] [h] | SMILES
3410 | 8 | 8.1 | 25 | 136 | >144 | CC[C@H](C)[C@H](NC(=O)[C@@H]1CCCN1C(=O)CNC(=O)[C@](C)(Cc1ccccc1)NC(=O)[C@H](CC(N)=O)NC(=O)[C@H](CC(N)=O)NC(=O)[C@H](CO)NC(=O)[C@H](CO)NC(=O)[C@H](Cc1c[nH]cn1)NC(=O)[C@@H](NC(=O)[C@H](CC(C)C)NC(=O)[C@H](Cc1ccccc1)NC(=O)[C@H](CC(N)=O)NC(=O)[C@H](C)NC(=O)[C@H](CC(C)C)NC(=O)[C@H](CCCNC(=N)N)NC(=O)[C@H](CCC(N)=O)NC(=O)[C@@H](NC(=O)[C@H](C)NC(=O)[C@@H]1CSSC[C@H](NC(=O)[C@@H](N)CCCCNC(=O)CC[C@H](NC(=O)CC[C@H](NC(=O)CCCCCCCCCCCCCCCCC(=O)O)C(=O)O)C(=O)O)C(=O)N[C@@H](CC(N)=O)C(=O)N[C@@H]([C@@H](C)O)C(=O)N[C@@H](C)C(=O)N[C@@H]([C@@H](C)O)C(=O)N1)[C@@H](C)O)C(C)C)C(=O)N[C@@H](CC(C)C)C(=O)N1CCC[C@H]1C(=O)N1CCC[C@H]1C(=O)N[C@H](C(=O)N[C@@H](CC(N)=O)C(=O)N[C@H](C(=O)NCC(=O)N[C@@H](CO)C(=O)N[C@@H](CCCNC(=N)N)C(=O)N[C@H](C(=O)N[C@@H](Cc1ccc(O)cc1)C(N)=O)[C@@H](C)O)C(C)C)[C@@H](C)O [Peptide 21, K(γE-γE-C18diacid)[CNTATC]ATQRLANFLVHSSNN(αMePhe)GPILPPTNVGSRTY-amide] (H-K([γGlu-γGlu-C18 diacid])CNTATCATQRLANFLVHSSNN[αMeF]GPILPPTNVGSRTY-NH2; disulfide 2-7; N-terminus assumed)
1250 | 6.9 | 8 | 12 | 105 | >144 | CC[C@H](C)[C@H](NC(=O)[C@@H]1CCCN1C(=O)CNC(=O)[C@](C)(Cc1ccccc1)NC(=O)[C@H](CC(N)=O)NC(=O)[C@H](CC(N)=O)NC(=O)[C@H](CO)NC(=O)[C@H](CO)NC(=O)[C@H](Cc1c[nH]cn1)NC(=O)[C@@H](NC(=O)[C@H](CC(C)C)NC(=O)[C@H](Cc1ccccc1)NC(=O)[C@H](CC(N)=O)NC(=O)[C@H](C)NC(=O)[C@H](CC(C)C)NC(=O)[C@H](CCCNC(=N)N)NC(=O)[C@H](CCC(N)=O)NC(=O)[C@@H](NC(=O)[C@H](C)NC(=O)[C@@H]1CSSC[C@H](NC(=O)[C@@H](N)CCCCNC(=O)CC[C@H](NC(=O)CCCCCCCCCCCCCCCCC(=O)O)C(=O)O)C(=O)N[C@@H](CC(N)=O)C(=O)N[C@@H]([C@@H](C)O)C(=O)N[C@@H](C)C(=O)N[C@@H]([C@@H](C)O)C(=O)N1)[C@@H](C)O)C(C)C)C(=O)N[C@@H](CC(C)C)C(=O)N1CCC[C@H]1C(=O)N1CCC[C@H]1C(=O)N[C@H](C(=O)N[C@@H](CCCNC(=N)N)C(=O)N[C@H](C(=O)NCC(=O)N[C@@H](CO)C(=O)N[C@@H](CC(N)=O)C(=O)N[C@H](C(=O)N[C@@H](Cc1ccc(O)cc1)C(N)=O)[C@@H](C)O)C(C)C)[C@@H](C)O [Peptide 25, K(γE-C18diacid)[CNTATC]ATQRLANFLVHSSNN(αMePhe)GPILPPTRVGSNTY-amide] (H-K([γGlu-C18 diacid])CNTATCATQRLANFLVHSSNN[αMeF]GPILPPTRVGSNTY-NH2; disulfide 2-7)
5400 | 10.3 | 12.5 | 23 | 235 | >144 | CC[C@H](C)[C@H](NC(=O)[C@@H]1CCCN1C(=O)CNC(=O)[C@H](Cc1ccccc1)NC(=O)[C@H](CC(N)=O)NC(=O)C(C)(C)NC(=O)[C@H](CO)NC(=O)[C@H](CO)NC(=O)[C@H](Cc1c[nH]cn1)NC(=O)[C@@H](NC(=O)[C@H](CC(C)C)NC(=O)[C@H](Cc1ccccc1)NC(=O)[C@H](CC(N)=O)NC(=O)[C@H](C)NC(=O)[C@H](CC(C)C)NC(=O)[C@H](CCCNC(=N)N)NC(=O)[C@H](CCC(N)=O)NC(=O)[C@@H](NC(=O)[C@H](C)NC(=O)[C@@H]1CSSC[C@H](NC(=O)[C@H](CCCCN)NC(=O)[C@@H](N)CCCCNC(=O)CC[C@H](NC(=O)CC[C@H](NC(=O)CCCCCCCCCCCCCCCCC(=O)O)C(=O)O)C(=O)O)C(=O)N[C@@H](CC(N)=O)C(=O)N[C@@H]([C@@H](C)O)C(=O)N[C@@H](C)C(=O)N[C@@H]([C@@H](C)O)C(=O)N1)[C@@H](C)O)C(C)C)C(=O)N[C@@H](CC(C)C)C(=O)N1CCC[C@H]1C(=O)N1CCC[C@H]1C(=O)N[C@H](C(=O)N[C@@H](CCCNC(=N)N)C(=O)N[C@H](C(=O)NCC(=O)N[C@@H](CO)C(=O)N[C@@H](CC(N)=O)C(=O)N[C@H](C(=O)N[C@@H](Cc1ccc(O)cc1)C(N)=O)[C@@H](C)O)C(C)C)[C@@H](C)O [Peptide 70, K(γE-γE-C18diacid)K[CNTATC]ATQRLANFLVHSS(Aib)NFGPILPPTRVGSNTY-amide] (H-K([γGlu-γGlu-C18 diacid])KCNTATCATQRLANFLVHSS[Aib]NFGPILPPTRVGSNTY-NH2; disulfide 3-8; N-terminus assumed)
2970 | 9.7 | 9.9 | 7 | 407 | >144 | CC[C@H](C)[C@H](NC(=O)[C@@H]1CCCN1C(=O)CNC(=O)[C@H](Cc1ccccc1)NC(=O)[C@H](CC(N)=O)NC(=O)C(C)(C)NC(=O)[C@H](CO)NC(=O)[C@H](CO)NC(=O)[C@H](Cc1c[nH]cn1)NC(=O)[C@@H](NC(=O)[C@H](CC(C)C)NC(=O)[C@H](Cc1ccccc1)NC(=O)[C@H](CC(N)=O)NC(=O)[C@H](C)NC(=O)[C@H](CC(C)C)NC(=O)[C@H](CCCNC(=N)N)NC(=O)[C@H](CCC(N)=O)NC(=O)[C@@H](NC(=O)[C@H](C)NC(=O)[C@@H]1CSSC[C@H](NC(=O)[C@H](CCCCN)NC(=O)[C@@H](N)CCCCNC(=O)CC[C@H](NC(=O)CCCCCCCCCCCCCCCCC(=O)O)C(=O)O)C(=O)N[C@@H](CC(N)=O)C(=O)N[C@@H]([C@@H](C)O)C(=O)N[C@@H](C)C(=O)N[C@@H]([C@@H](C)O)C(=O)N1)[C@@H](C)O)C(C)C)C(=O)N[C@@H](CC(C)C)C(=O)N1CCC[C@H]1C(=O)N1CCC[C@H]1C(=O)N[C@H](C(=O)NC(C)(C)C(=O)N[C@H](C(=O)NCC(=O)N[C@@H](CO)C(=O)N[C@@H](CC(N)=O)C(=O)N[C@H](C(=O)N[C@@H](Cc1ccc(O)cc1)C(N)=O)[C@@H](C)O)C(C)C)[C@@H](C)O [Peptide 80, K(γE-C18diacid)K[CNTATC]ATQRLANFLVHSS(Aib)NFGPILPPT(Aib)VGSNTY-amide] (H-K([γGlu-C18 diacid])KCNTATCATQRLANFLVHSS[Aib]NFGPILPPT[Aib]VGSNTY-NH2; disulfide 3-8; N-terminus assumed)
